Assay results published in ChEMBL document CHEMBL4418912, “Methods of identifying antagonists of the hTAS2R46 bitter taste receptor” (2014).
Active and inactive are the calls of the source. The calls are words filed in the database; no cut-off is given here.

What was measured:
Type in all cases: functional, cell-based
[1] = biological target: T1, Taste receptor type 2 member 7 (Homo sapiens) (UniProt Q9NYW3); assay: Antagonist activity at recombinant human N-terminal rat ST3 receptor-fused TAS2R7 expressed in HEK293T cells co-expressing Galpha16gust44 assessed as inhibition of quinine sulfate-induced increase in intracellular calcium level at 100 uM by FLIPR assay
T1 sequence (whole entry): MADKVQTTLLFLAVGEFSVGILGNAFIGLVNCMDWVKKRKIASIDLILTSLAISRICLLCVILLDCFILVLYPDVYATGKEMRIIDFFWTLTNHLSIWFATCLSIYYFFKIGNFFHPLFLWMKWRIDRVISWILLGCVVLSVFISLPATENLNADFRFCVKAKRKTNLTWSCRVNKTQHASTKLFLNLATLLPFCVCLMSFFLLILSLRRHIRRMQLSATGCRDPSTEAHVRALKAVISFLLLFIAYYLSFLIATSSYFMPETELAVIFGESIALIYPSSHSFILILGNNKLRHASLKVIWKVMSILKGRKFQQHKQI

[2] = biological target: T2, Taste receptor type 2 member 30 (Homo sapiens) (UniProt P59541); assay: Agonist activity at recombinant human N-terminal rat ST3 receptor-fused TAS2R47 expressed in HEK293T cells co-expressing Galpha16gust44 assessed as increase in intracellular calcium level at 100 uM by FLIPR assay
T2 sequence (whole entry): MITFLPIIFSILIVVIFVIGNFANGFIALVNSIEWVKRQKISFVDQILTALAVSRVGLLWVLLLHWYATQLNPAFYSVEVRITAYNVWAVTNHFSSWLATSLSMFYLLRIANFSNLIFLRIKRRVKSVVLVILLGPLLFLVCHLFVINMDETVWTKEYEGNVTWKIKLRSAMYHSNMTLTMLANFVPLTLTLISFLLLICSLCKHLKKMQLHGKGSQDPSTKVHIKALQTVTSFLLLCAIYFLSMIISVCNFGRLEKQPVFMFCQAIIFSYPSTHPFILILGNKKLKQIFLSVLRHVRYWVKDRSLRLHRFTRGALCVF

[3] = biological target: T3, Taste receptor type 2 member 50 (Homo sapiens) (UniProt P59544); assay: Agonist activity at recombinant human N-terminal rat ST3 receptor-fused TAS2R50 expressed in HEK293T cells co-expressing Galpha16gust44 assessed as increase in intracellular calcium level at 100 uM by FLIPR assay
T3 sequence (whole entry): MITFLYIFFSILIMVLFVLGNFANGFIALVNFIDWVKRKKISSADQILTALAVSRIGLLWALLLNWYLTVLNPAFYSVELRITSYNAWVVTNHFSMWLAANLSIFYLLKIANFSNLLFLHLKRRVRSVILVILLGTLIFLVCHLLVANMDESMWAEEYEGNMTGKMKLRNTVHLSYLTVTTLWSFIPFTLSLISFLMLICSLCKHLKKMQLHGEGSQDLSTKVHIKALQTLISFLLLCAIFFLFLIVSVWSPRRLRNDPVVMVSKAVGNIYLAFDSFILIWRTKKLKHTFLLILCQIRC

[4] = biological target: Taste receptor type 2 member 40 (Homo sapiens) (UniProt P59535); assay: Agonist activity at recombinant human N-terminal rat ST3 receptor-fused TAS2R40 expressed in HEK293T cells co-expressing Galpha16gust44 assessed as increase in intracellular calcium level at 100 uM by FLIPR assay
Sequence of Taste receptor type 2 member 40 (Homo sapiens) (P59535 whole entry, the tested form may be a part): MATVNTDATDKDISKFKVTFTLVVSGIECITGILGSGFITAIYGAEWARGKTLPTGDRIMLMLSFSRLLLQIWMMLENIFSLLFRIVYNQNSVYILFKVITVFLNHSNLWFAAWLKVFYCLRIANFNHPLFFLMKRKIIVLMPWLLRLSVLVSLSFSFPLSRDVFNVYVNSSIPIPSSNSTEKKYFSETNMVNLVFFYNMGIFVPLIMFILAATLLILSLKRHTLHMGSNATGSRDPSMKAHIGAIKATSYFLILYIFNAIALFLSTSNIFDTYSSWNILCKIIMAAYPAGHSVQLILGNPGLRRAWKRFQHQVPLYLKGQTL

[5] = biological target: T4, Taste receptor type 2 member 5 (Homo sapiens) (UniProt Q9NYW4); assay: Agonist activity at recombinant human N-terminal rat ST3 receptor-fused TAS2R5 expressed in HEK293T cells co-expressing Galpha16gust44 assessed as increase in intracellular calcium level at 100 uM by FLIPR assay
T4 sequence (whole entry): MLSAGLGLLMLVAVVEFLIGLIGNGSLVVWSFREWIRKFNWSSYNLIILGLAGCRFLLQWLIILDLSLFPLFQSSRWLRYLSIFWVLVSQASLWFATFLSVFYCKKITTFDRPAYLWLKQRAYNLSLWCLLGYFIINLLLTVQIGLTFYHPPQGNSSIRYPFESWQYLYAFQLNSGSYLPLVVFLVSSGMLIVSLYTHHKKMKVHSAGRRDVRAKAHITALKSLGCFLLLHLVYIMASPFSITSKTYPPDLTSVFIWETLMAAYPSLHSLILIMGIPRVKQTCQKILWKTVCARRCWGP

[6] = biological target: T1, Taste receptor type 2 member 7 (Homo sapiens); assay: Potentiation of quinine sulfate-induced agonist activity at recombinant human N-terminal rat ST3 receptor-fused TAS2R7 expressed in HEK293T cells co-expressing Galpha16gust44 assessed as increase in intracellular calcium level at 100 uM by FLIPR assay
[7] = biological target: Taste receptor type 2 member 45 (Homo sapiens) (UniProt P59539); assay: Agonist activity at recombinant human N-terminal rat ST3 receptor-fused TAS2R45 expressed in HEK293T cells co-expressing Galpha16gust44 assessed as increase in intracellular calcium level at 100 uM by FLIPR assay
Sequence of Taste receptor type 2 member 45 (Homo sapiens) (P59539 whole entry, the tested form may be a part): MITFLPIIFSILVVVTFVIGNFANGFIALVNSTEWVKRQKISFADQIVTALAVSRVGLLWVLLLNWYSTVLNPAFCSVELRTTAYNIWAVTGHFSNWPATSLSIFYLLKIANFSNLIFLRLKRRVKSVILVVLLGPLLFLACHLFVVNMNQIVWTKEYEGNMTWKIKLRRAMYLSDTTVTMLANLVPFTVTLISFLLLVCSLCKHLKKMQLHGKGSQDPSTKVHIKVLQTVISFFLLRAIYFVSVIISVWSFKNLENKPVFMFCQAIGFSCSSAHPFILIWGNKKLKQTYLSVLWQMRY

[8] = biological target: T5, Taste receptor type 2 member 8 (Homo sapiens) (UniProt Q9NYW2); assay: Agonist activity at recombinant human N-terminal rat ST3 receptor-fused TAS2R8 expressed in HEK293T cells co-expressing Galpha16gust44 assessed as increase in intracellular calcium level at 100 uM by FLIPR assay
T5 sequence (whole entry): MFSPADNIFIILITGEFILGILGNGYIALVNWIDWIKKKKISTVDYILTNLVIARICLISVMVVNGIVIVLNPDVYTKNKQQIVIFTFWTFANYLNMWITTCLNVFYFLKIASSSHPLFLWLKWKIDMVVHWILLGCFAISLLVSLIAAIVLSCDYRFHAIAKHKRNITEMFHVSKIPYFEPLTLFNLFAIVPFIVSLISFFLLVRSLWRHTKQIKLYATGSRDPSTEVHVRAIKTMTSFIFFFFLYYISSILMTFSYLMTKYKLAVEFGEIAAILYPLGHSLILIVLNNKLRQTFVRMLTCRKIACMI

[9] = biological target: T6, Taste receptor type 2 member 4 (Homo sapiens) (UniProt Q9NYW5); assay: Agonist activity at recombinant human N-terminal rat ST3 receptor-fused TAS2R4 expressed in HEK293T cells co-expressing Galpha16gust44 assessed as increase in intracellular calcium level at 100 uM by FLIPR assay
T6 sequence (whole entry): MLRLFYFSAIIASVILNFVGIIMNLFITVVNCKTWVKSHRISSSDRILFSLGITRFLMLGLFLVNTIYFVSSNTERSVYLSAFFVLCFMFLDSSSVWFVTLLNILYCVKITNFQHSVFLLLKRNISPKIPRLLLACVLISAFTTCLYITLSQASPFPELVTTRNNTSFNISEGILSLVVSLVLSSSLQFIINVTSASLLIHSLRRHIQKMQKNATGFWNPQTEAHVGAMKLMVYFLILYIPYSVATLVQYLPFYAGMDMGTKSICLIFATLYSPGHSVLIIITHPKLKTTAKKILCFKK

SMILES: C/C1=C\C[C@H](O)[C@@H](C)C[C@H]2OC(=O)[C@@H](C)[C@@H]2CC1
- inhibition [1]: inactive

SMILES: C/C1=C\C[C@H](O)/C(C)=C/[C@H]2OC(=O)[C@@H](C)[C@@H]2CC1
- Activity [2]: inactive
- Activity [3]: inactive
- Activity [4]: inactive
- Activity [5]: inactive
- Activity [6]: Active
- Activity [7]: inactive
- Activity [8]: Active
- Activity [9]: Active
